Test results reported in paper PMC12261233, “Photoactivatable Cyclometalated Ir(III) Compound Penetrates the Blood-Brain Barrier in 3D Spheroidal and Advanced 3D Organoid Models of Inherently Resistant and Aggressive Brain Tumors” (ACS Pharmacology & Translational Science, 2025).
Where two headings read alike, the source gives them in different places.

Assays:
[1] = tested on: U87MG cells; test: Antiproliferative activity, 2D monolayer, SRB assay; type: cell-based, human; details: for PI (phototoxicity index) 2D: IC50 dark / IC50 420 nm irradiated; for IC50: U87MG 2D monolayer, 90 min treatment, SRB
Protocol: The antiproliferative activity of the compounds under investigation was assessed using the Sulforhodamine B (SRB) assay on both 2D cell monolayers and 3D spheroids. For the 2D cell monolayer assay, cells were seeded in 96-well tissue culture plates at a density of 3 × 10^3 cells/well in 100 μL of culture medium. Following overnight incubation in a humidified CO2 incubator, the medium was replaced, and the cells were treated with the investigated compounds in a final volume of 200 μL/well of Earle’s Balanced Salt Solution (EBSS). The cells were then exposed to the tested compounds for 1.5 h under dark conditions (5% CO2, 37 °C) and subsequently irradiated with blue light (420 nm) for 30 min at an intensity of 58 W/m^2. After treatment, the samples were washed with Phosphate-Buffered Saline (PBS) and replenished with 200 μL of culture medium. Following an additional 70-h incubation, the cells were washed with PBS, fixed with trichloroacetic acid at 4 °C for 1 h, and stained with 0.4% SRB dye for 30 min. The stained cells were dissolved with Tris (10 mM), and the cell viability was assessed by measuring the absorbance at 570 nm using an Absorbance Reader (SPARK TECAN, SCHOELLER). […] After the 72-h spheroid formation period, the samples were treated and irradiated as described for the 2D cultures. […] The luminescence signal was detected using the plate reader SPARK (Tecan, Manedorf, Switzerland), and the IC50 values were calculated from the survival curves. All experiments were conducted in triplicate to ensure the reliability and reproducibility of the results. Furthermore, the concentrations of the compounds in the medium during the treatment were verified using Flame Atomic Absorption Spectroscopy (FAAS) or Inductively Coupled Plasma Mass Spectrometry (ICP-MS). […]
drug-free incubation. c IC50 values were determined by SRB assay. d IC50 values were determined by CellTiter-Glo® 3D chemiluminescent assay. e PI - phototoxicity index was calculated as the ratio of IC50 determined under the dark conditions / IC50 determined for 420 […]
models under irradiation conditions.

[2] = tested on: U87MG spheroids; test: Antiproliferative activity, 3D spheroids, CellTiter-Glo 3D assay; type: cell-based, human; details: for PI (phototoxicity index) 3D: IC50 dark / IC50 420 nm irradiated; for IC50: U87MG 3D spheroids, 90 min treatment, CellTiter-Glo 3D; for TMI (3D/2D): ratio of IC50 for 3D and 2D models under irradiation
Protocol: The antiproliferative activity of the compounds under investigation was assessed using the Sulforhodamine B (SRB) assay on both 2D cell monolayers and 3D spheroids. For the 2D cell monolayer assay, cells were seeded in 96-well tissue culture plates at a density of 3 × 10^3 cells/well in 100 μL of culture medium. Following overnight incubation in a humidified CO2 incubator, the medium was replaced, and the cells were treated with the investigated compounds in a final volume of 200 μL/well of Earle’s Balanced Salt Solution (EBSS). The cells were then exposed to the tested compounds for 1.5 h under dark conditions (5% CO2, 37 °C) and subsequently irradiated with blue light (420 nm) for 30 min at an intensity of 58 W/m^2. After treatment, the samples were washed with Phosphate-Buffered Saline (PBS) and replenished with 200 μL of culture medium. Following an additional 70-h incubation, the cells were washed with PBS, fixed with trichloroacetic acid at 4 °C for 1 h, and stained with 0.4% SRB dye for 30 min. The stained cells were dissolved with Tris (10 mM), and the cell viability was assessed by measuring the absorbance at 570 nm using an Absorbance Reader (SPARK TECAN, SCHOELLER). The absorbance readings were then converted to the percentage of control (% cell survival), and the antiproliferative effects were expressed as IC50 values, which were calculated from curves plotting cell survival (%) versus drug concentration (μM) (IC50 = the concentration of the agent that inhibits cell growth by 50%). For experiments with 3D spheroids, 2500 single cells/well were seeded on ultralow attachment U-shape 96-well plates (Corning, USA) and cultured for 72 h in 3D forming medium DMEM-F12 ham medium supplemented with growth and spheroid forming factors: 2% B27 (Thermo Fisher Scientific Inc., MA, USA), epidermal growth factor (EGF; Sigma-Aldrich, Germany, 20 ng mL^–1), fibroblast growth factor (FGF2; Sigma-Aldrich, Germany, 10 ng mL^–1), and BSA (0.15%). After the 72-h spheroid formation period, the samples were treated and irradiated as described for the 2D cultures. Subsequently, the samples were cultured in the 3D forming medium for an additional 70 h, and the antiproliferative potency of the tested compounds against spheroids was determined by assessing changes in IC50 values using the CellTiterGlo-3D assay (Promega). The luminescence signal was detected using the plate reader SPARK (Tecan, Manedorf, Switzerland), and the IC50 values were calculated from the survival curves. All experiments were conducted in triplicate to ensure the reliability and reproducibility of the results. Furthermore, the concentrations of the compounds in the medium during the treatment were verified using Flame Atomic Absorption Spectroscopy (FAAS) or Inductively Coupled Plasma Mass Spectrometry (ICP-MS).
The antiproliferative activity (IC50 valuesa) of the investigated compounds determined in 2D and 3D models of U87MG cellsb
Dark Irradiated PId Dark Irradiated PIe (3D/2D) […]
a Concentration that causes 50% inhibition of cell proliferation. b Cell monolayer or generated 3D spheroids were treated for 90 min with increasing concentrations of the investigated compounds, followed by 30 min of irradiation with blue light (420 nm; 58 Wm-2) and 70 h of drug-free incubation. c IC50 values were determined by SRB assay. d IC50 values were determined by CellTiter-Glo® 3D chemiluminescent assay. e PI - phototoxicity index was calculated as the ratio of IC50 determined under the dark conditions / IC50 determined for 420 […]
f TMI – tissue-mass index was calculated as the ratio of IC50 values determined for 3D and 2D models under irradiation conditions.

[3] = Stability in the dark by UV/vis spectroscopy; type: physicochemical; details: DMSO, water, cell culture medium (RPMI), presence of glutathione; up to 24h
Protocol: The stability of complex Ir10 was studied in DMSO, water (1% DMSO), and RPMI (5% DMSO) using UV/vis spectroscopy at different times in the absence and presence of GSH (10 mM) or NADH (100 μM) to mimic the cellular and physiological conditions (Figure S6).

[4] = dark, 70 h drug-free incubation, read-out: IC50 2D Dark
[5] = 30 min blue light 420 nm 58 W m-2, 70 h drug-free, read-out: IC50 2D Irradiated
[6] = dark, 70 h drug-free, read-out: IC50 3D Dark
[7] = 30 min blue light 420 nm 58 W m-2, 70 h drug-free, read-out: IC50 3D Irradiated

| Compound | PI (phototoxicity index) 2D [1] | IC50 [1, 4] | IC50 [1, 5] | PI (phototoxicity index) 3D [2] | IC50 [2, 6] | IC50 [2, 7] | TMI (3D/2D) [2] | stability in the dark [3] |
| --- | --- | --- | --- | --- | --- | --- | --- | --- |
| Cc1ccc(-c2cc3[n+]4c(c2)-c2cccc[n+]2[Ir-3]42([Cl])([c]4ccsc4-c4n(Cc5ccc(C(F)(F)F)cc5)c5ccccc5[n+]42)[n+]2ccccc2-3)cc1.F[P-](F)(F)(F)(F)F [Ir1] | 3.5 | 4.3 ± 0.1 µM | 1.3 ± 0.1 µM | 2.9 | 16.4 ± 0.2 µM | 5.7 ± 0.7 µM | 4.4 |  |
| Cc1ccc(-c2cc3[n+]4c(c2)-c2cccc[n+]2[Ir-3]42([Cl])([c]4ccccc4-c4n(Cc5ccc(C(F)(F)F)cc5)c5ccccc5[n+]42)[n+]2ccccc2-3)cc1.F[P-](F)(F)(F)(F)F [Ir2] | 16 | 6.9 ± 0.4 µM | 0.43 ± 0.02 µM | 3.0 | 14.9 ± 0.5 µM | 5 ± 0.2 µM | 11.6 |  |
| Cc1ccc(-c2cc3[n+]4c(c2)-c2cccc[n+]2[Ir-3]42([Cl])([c]4ccccc4-c4n(C)c5ccccc5[n+]42)[n+]2ccccc2-3)cc1.F[P-](F)(F)(F)(F)F [Ir6] | 23 | 23.9 ± 3.1 µM | 1 ± 0.1 µM | 3.1 | 26 ± 5.1 µM | 8.3 ± 1.1 µM | 8.3 |  |
| Cc1ccc(-c2cc3[n+]4c(c2)-c2cccc[n+]2[Ir-3]42([Cl])([c]4cc5ccccc5cc4-c4n(C)c5ccccc5[n+]42)[n+]2ccccc2-3)cc1.F[P-](F)(F)(F)(F)F [Ir7] | 4.7 | 7.1 ± 0.4 µM | 1.5 ± 0.2 µM | 1.6 | 10.8 ± 1.6 µM | 6.7 ± 0.6 µM | 4.5 |  |
| Cc1ccc(-c2cc3[n+]4c(c2)-c2cccc[n+]2[Ir-3]42([Cl])([c]4ccsc4-c4n(C)c5ccccc5[n+]42)[n+]2ccccc2-3)cc1.F[P-](F)(F)(F)(F)F [Ir8] | 12 | 9.3 ± 0.9 µM | 0.8 ± 0.05 µM | 2.8 | 19.3 ± 0.7 µM | 7 ± 0.9 µM | 8.8 |  |
| Cc1ccc(-c2cc3[n+]4c(c2)-c2cccc[n+]2[Ir-3]42([Cl])([c]4c(ccc5c4OCO5)-c4n(C)c5ccccc5[n+]42)[n+]2ccccc2-3)cc1.F[P-](F)(F)(F)(F)F [Ir9] | 4.6 | 6.2 ± 0.7 µM | 1.3 ± 0.2 µM | 2.6 | 18.9 ± 0.2 µM | 7.3 ± 0.3 µM | 5.6 |  |
| COC(=O)c1ccc2c(c1)[n+]1c(n2Cc2ccc(C(F)(F)F)cc2)-c2cccc[c]2[Ir-3]123([Cl])[n+]1ccccc1-c1cc(-c4ccc(C)cc4)cc([n+]12)-c1cccc[n+]13.F[P-](F)(F)(F)(F)F [Ir10] | 15.5 | 34.2 ± 5.3 µM | 2.2 ± 0.9 µM | 3.9 | 41.3 ± 1.6 µM | 10.5 ± 0.6 µM | 4.8 | stable |
